{"source": "patent US6875451B2", "about": "“Compositions and methods for the treatment of primary and metastatic neoplastic diseases using arsenic compounds” (PolaRx Biopharmaceuticals Inc., priority 1997, dated 2005)", "origin": "cited, not measured here", "system": "cell lines representative of chronic B-cell leukemia", "conditions": "cited from earlier work", "data": [{"compound": "Nc1nc(N)nc(Nc2ccc([As]3SCC(CO)S3)cc2)n1", "note": "(stereo not shown) [melarsoprol]", "values": [{"measurement": "apoptosis", "result": "induce apoptosis"}]}]}
